Measured values from patent US20200223889A1, “Bicyclic Compounds Capable of Binding to Melanocortin 4 Receptor” (Novo Nordisk A/S, priority 2017, published 2020).
Like-named read-outs stand apart in the source and are kept apart here. Starred links: 1 amine or outer side, 2 acyl side, 3 side chain; linkers in the order of their positions; H or OH if unused. Positions of bridges follow the written chain, without caps; N, C: chain ends. Non-standard residues stand in square brackets, D forms with d. Residues, ends and D or L forms follow the SMILES beside them. Hyp = O=C(O)[C@@H]1C[C@@H](O)CN1; Cit = NC(=O)NCCC[C@H](N)C(=O)O; d(hCys) = N[C@H](CCS)C(=O)O; Api = NC1(C(=O)O)CCNCC1; X1 = C(CN[*:2])CS[*:1]; Aib = CC(C)(N)C(=O)O; Sar = CNCC(=O)O

Target: T1, human MC4R (Homo sapiens, UniProt P32245)
T1 construct: expressed in transfected cells
Assay: Functional cAMP assay (CisBio HTRF) in BHK cells expressing human MC4R
Assay type: cell-based
Conditions: for MC1R/MC4R cAMP EC50 ratio: MC1R cAMP EC50 divided by MC4R cAMP EC50
Method: In order to assess the potency of the compounds on human MC1R and human MC4R cAMP signalling was measured.
cAMP induction was measured by c-AMPdynamic2 assay, HTRF 62AM4PEC system from CisBio for the human MC1R and human MC4R according to the protocol provided by the vendor. BHK cells expressing the human MC1 or MC4 receptor were generated by stable transfection with expression vectors encoding the cDNA of either MC1R or MC4R.
In details; 25 μl compound—or standard solution were added in the respective wells. Compound was reconstituted in buffer (DMEM w/o phenol red, 10 mM
Hepes, lx Glutamine, 0.1% OV-albumin1, 1 mM IBMX) and serially diluted starting at 2 μM, 10-fold seven times. Dilutions were carried out in the same aforementioned buffer to the desired working concentration ranges (2× higher than the final concentration). 25 μl cell solution was then added and allowed to incubate for 30 min while lightly shaking, at 25° C. […] The provided components for the assay were reconstituted according to the CisBio assay protocol “3.1 supplied reagents and preparation procedure” in MilliQ purification system H2O and diluted 1:20 in lysis buffer. 25 μl cAMP-d2 and 25 μl Cryptate conjugate were added to all wells.
Plates were centrifuged at 1500 rpm for 30 sec and incubated for 1 h, lightly shaking, at 25° C. in a hotel stacker. The plates were read on Mithras LB 940 provided by Berthold Technologies The data were analysed by non-linear regression analysis of binding curves, using the Windows™ program GraphPad™ Prism (GraphPad Software, USA).
The latter is used when no full curve can be obtained in the concentration ranges indicated above.

[1] = BHK cells expressing human MC4R, '>' = highest dose used with no response, read-out: MC4R cAMP EC50

T1 sequence (P32245 whole entry): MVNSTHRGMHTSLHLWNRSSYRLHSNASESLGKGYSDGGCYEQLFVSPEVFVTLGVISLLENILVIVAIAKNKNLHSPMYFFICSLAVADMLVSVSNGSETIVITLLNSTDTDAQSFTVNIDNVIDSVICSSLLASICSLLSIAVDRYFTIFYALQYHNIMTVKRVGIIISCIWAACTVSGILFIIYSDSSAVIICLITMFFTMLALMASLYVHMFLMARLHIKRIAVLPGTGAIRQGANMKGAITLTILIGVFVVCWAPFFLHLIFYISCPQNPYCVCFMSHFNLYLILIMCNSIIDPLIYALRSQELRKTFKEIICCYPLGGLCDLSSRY

SMILES	MC1R/MC4R cAMP EC50 ratio	EC50 [1] [nM]	EC50 [nM]
N=C(N)NCCC[C@@H]1NC(=O)[C@@H](Cc2ccccc2)NC(=O)[C@H](Cc2c[nH]cn2)NC(=O)[C@@H]2CSSC[C@H](NC(=O)[C@H](CCC(=O)O)NC(=O)[C@H](Cc3c[nH]c4ccccc34)NC1=O)C(=O)N[C@@H](Cc1c[nH]cn1)C(=O)N[C@H](Cc1ccccc1)C(=O)N[C@@H](CCCNC(=N)N)C(=O)N[C@@H](Cc1c[nH]c3ccccc13)C(=O)N[C@@H](CCC(=O)O)C(=O)N2 [Chem. 1, c[c[Cys-His-D-Phe-Arg-Trp-Glu-Cys]- His-D-Phe-Arg-Trp-Glu]] (cyclo(CH[dF]RWECH[dF]RWE); disulfide 1-7)	13	–	–
CC(=O)N[C@@H](Cc1c[nH]cn1)C(=O)N[C@H](Cc1ccccc1)C(=O)N[C@@H](CCCNC(=N)N)C(=O)N[C@@H](Cc1c[nH]c2ccccc12)C(=O)NCC(=O)N[C@@H]1CCSSCCCNC(=O)CNC(=O)[C@H](Cc2c[nH]c3ccccc23)NC(=O)[C@H](CCCNC(=N)N)NC(=O)[C@@H](Cc2ccccc2)NC(=O)[C@H](Cc2c[nH]cn2)NC1=O [Chem. 4, c[c[Cys-His-D-Phe-Arg-Trp-Gly-Cys]- His-D-Phe-Arg-Trp-Gly]] (Ac-H[dF]RWG[d(hCys)]H[dF]RWG; linker 6-C via X1)	7	0.09	–
CC(=O)N[C@@H](Cc1c[nH]cn1)C(=O)N[C@H](Cc1ccccc1)C(=O)N[C@@H](CCCNC(=N)N)C(=O)N[C@@H](Cc1c[nH]c2ccccc12)C(=O)N[C@@H](C)C(=O)N[C@@H]1CCSSCCCNC(=O)[C@H](C)NC(=O)[C@H](Cc2c[nH]c3ccccc23)NC(=O)[C@H](CCCNC(=N)N)NC(=O)[C@@H](Cc2ccccc2)NC(=O)[C@H](Cc2c[nH]cn2)NC1=O [Chem. 5, c[c[Cys-His-D-Phe-Arg-Trp-Ala-Cys]- His-D-Phe-Arg-Trp-Ala]] (Ac-H[dF]RWA[d(hCys)]H[dF]RWA; linker 6-C via X1)	31	0.21	–
CC1(C)NC(=O)[C@@H]2CSSC[C@H](NC(=O)[C@H](Cc3c[nH]c4ccccc34)NC(=O)[C@H](CCCNC(=N)N)NC(=O)[C@@H](Cc3ccccc3)NC(=O)[C@H](Cc3c[nH]cn3)NC1=O)C(=O)NC(C)(C)C(=O)N[C@@H](Cc1c[nH]cn1)C(=O)N[C@H](Cc1ccccc1)C(=O)N[C@@H](CCCNC(=N)N)C(=O)N[C@@H](Cc1c[nH]c3ccccc13)C(=O)N2 [Chem. 9, c[c[Cys-Aib-His-D-Phe-Arg-Trp-Cys]- Aib-His-D-Phe-Arg-Trp]] (cyclo([Aib]H[dF]RWC[Aib]H[dF]RWC); disulfide 6-12)	201	–	–
C[C@@H]1NC(=O)[C@@H]2CSSC[C@H](NC(=O)[C@H](Cc3c[nH]c4ccccc34)NC(=O)[C@H](CCN)NC(=O)[C@@H](Cc3ccccc3)NC(=O)[C@H](Cc3c[nH]cn3)NC1=O)C(=O)N[C@@H](C)C(=O)N[C@@H](Cc1c[nH]cn1)C(=O)N[C@H](Cc1ccccc1)C(=O)N[C@@H](CCN)C(=O)N[C@@H](Cc1c[nH]c3ccccc13)C(=O)N2 [Chem. 17, c[c[Cys-Ala-His-D-Phe-Dab-Trp-Cys]- Ala-His-D-Phe-Dab-Trp]]	288	–	–
C[C@@H]1NC(=O)[C@@H]2CSSC[C@H](NC(=O)[C@H](Cc3c[nH]c4ccccc34)NC(=O)[C@H](Cc3c[nH]cn3)NC(=O)[C@@H](Cc3ccccc3)NC(=O)[C@H](Cc3c[nH]cn3)NC1=O)C(=O)N[C@@H](C)C(=O)N[C@@H](Cc1c[nH]cn1)C(=O)N[C@H](Cc1ccccc1)C(=O)N[C@@H](Cc1c[nH]cn1)C(=O)N[C@@H](Cc1c[nH]c3ccccc13)C(=O)N2 [Chem. 24, c[c[Cys-Ala-His-D-Phe-His-Trp-Cys]- Ala-His-D-Phe-His-Trp]] (cyclo(AH[dF]HWCAH[dF]HWC); disulfide 6-12)	364	0.49	–
CN1CC(=O)N[C@@H](Cc2c[nH]cn2)C(=O)N[C@H](Cc2ccccc2)C(=O)N[C@@H](CCCNC(=N)N)C(=O)N[C@@H](Cc2c[nH]c3ccccc23)C(=O)N[C@H]2CSSC[C@H](NC(=O)[C@H](Cc3c[nH]c4ccccc34)NC(=O)[C@H](CCCNC(=N)N)NC(=O)[C@@H](Cc3ccccc3)NC(=O)[C@H](Cc3c[nH]cn3)NC(=O)CN(C)C2=O)C1=O [Chem. 31, c[c[Cys-Sar-His-D-Phe-Arg-Trp-Cys]- Sar-His-D-Phe-Arg-Trp]] (cyclo(C[Sar]H[dF]RWC[Sar]H[dF]RW); disulfide 1-7)	27	0.29	–
N=C(N)NCCC[C@@H]1NC(=O)[C@@H](Cc2ccccc2)NC(=O)[C@H](Cc2c[nH]cn2)NC(=O)[C@@H]2C[C@@H](O)CN2C(=O)[C@@H]2CSSC[C@H](NC(=O)[C@H](Cc3c[nH]c4ccccc34)NC1=O)C(=O)N1C[C@H](O)C[C@H]1C(=O)N[C@@H](Cc1c[nH]cn1)C(=O)N[C@H](Cc1ccccc1)C(=O)N[C@@H](CCCNC(=N)N)C(=O)N[C@@H](Cc1c[nH]c3ccccc13)C(=O)N2 [Chem. 32, c[c[Cys-Hyp-His-D-Phe-Arg-Trp- Cys]-Hyp-His-D-Phe-Arg-Trp]] (cyclo(C[Hyp]H[dF]RWC[Hyp]H[dF]RW); disulfide 1-7)	17	–	0.12
C[C@@H]1NC(=O)[C@@H]2CSSC[C@H](NC(=O)[C@H](Cc3c[nH]c4ccccc34)NC(=O)[C@H](CCCNC(=N)N)N(C)C(=O)[C@@H](Cc3ccccc3)NC(=O)[C@H](Cc3c[nH]cn3)NC1=O)C(=O)N[C@@H](C)C(=O)N[C@@H](Cc1c[nH]cn1)C(=O)N[C@H](Cc1ccccc1)C(=O)N(C)[C@@H](CCCNC(=N)N)C(=O)N[C@@H](Cc1c[nH]c3ccccc13)C(=O)N2 [Chem. 37, c[c[Cys-Ala-His-D-Phe-N-MeArg-Trp- Cys]-Ala-His-D-Phe-N-MeArg-Trp]]	8	–	–
CC1(C)NC(=O)[C@@H]2CSSC[C@H](NC(=O)[C@H](Cc3c[nH]c4ccccc34)NC(=O)[C@H](CCCNC(=N)N)NC(=O)[C@@H](Cc3ccccc3)NC(=O)[C@@H]3CCCN3C1=O)C(=O)NC(C)(C)C(=O)N1CCC[C@H]1C(=O)N[C@H](Cc1ccccc1)C(=O)N[C@@H](CCCNC(=N)N)C(=O)N[C@@H](Cc1c[nH]c3ccccc13)C(=O)N2 [Chem. 39, c[c[Cys-Aib-Pro-D-Phe-Arg-Trp-Cys]- Aib-Pro-D-Phe-Arg-Trp]] (cyclo([Aib]P[dF]RWC[Aib]P[dF]RWC); disulfide 6-12)	37	–	–
O=C1N[C@H]2CSSC[C@H](NC(=O)[C@H](Cc3c[nH]c4ccccc34)NC(=O)[C@H](Cc3c[nH]cn3)NC(=O)[C@@H](Cc3ccccc3)NC(=O)[C@H](Cc3c[nH]cn3)NC(=O)C3(CCNCC3)NC2=O)C(=O)NC2(CCNCC2)C(=O)N[C@@H](Cc2c[nH]cn2)C(=O)N[C@H](Cc2ccccc2)C(=O)N[C@@H](Cc2c[nH]cn2)C(=O)N[C@H]1Cc1c[nH]c2ccccc12 [Chem. 50, c[c[Cys-ACP-His-D-Phe-His-Trp-Cys]- ACP-His-D-Phe-His-Trp]] (cyclo([Api]H[dF]HWC[Api]H[dF]HWC); disulfide 6-12)	56	–	–
N=C(N)NCCC[C@@H]1NC(=O)[C@@H](Cc2ccccc2)NC(=O)[C@H](Cc2c[nH]cn2)NC(=O)[C@H](CCC(=O)O)NC(=O)[C@@H]2CSSC[C@H](NC(=O)[C@H](Cc3c[nH]c4ccccc34)NC1=O)C(=O)N[C@@H](CCC(=O)O)C(=O)N[C@@H](Cc1c[nH]cn1)C(=O)N[C@H](Cc1ccccc1)C(=O)N[C@@H](CCCNC(=N)N)C(=O)N[C@@H](Cc1c[nH]c3ccccc13)C(=O)N2 [Chem. 51, c[c[Cys-Glu-His-D-Phe-Arg-Trp-Cys]- Glu-His-D-Phe-Arg-Trp]] (cyclo(CEH[dF]RWCEH[dF]RW); disulfide 1-7)	13	0.2	–
NCCCC[C@@H]1NC(=O)[C@@H]2CSSC[C@H](NC(=O)[C@H](Cc3c[nH]c4ccccc34)NC(=O)[C@H](CCCNC(N)=O)NC(=O)[C@@H](Cc3ccccc3)NC(=O)[C@H](Cc3c[nH]cn3)NC1=O)C(=O)N[C@@H](CCCCN)C(=O)N[C@@H](Cc1c[nH]cn1)C(=O)N[C@H](Cc1ccccc1)C(=O)N[C@@H](CCCNC(N)=O)C(=O)N[C@@H](Cc1c[nH]c3ccccc13)C(=O)N2 [Chem. 55, c[c[Cys-Lys-His-D-Phe-Cit-Trp-Cys]- Lys-His-D-Phe-Cit-Trp]] (cyclo(CKH[dF][Cit]WCKH[dF][Cit]W); disulfide 1-7)	41	0.1	–
N=C(N)NCCC[C@@H]1NC(=O)[C@H](Cc2c[nH]c3ccccc23)NC(=O)[C@H](CCCNC(=N)N)NC(=O)[C@@H](Cc2ccccc2)NC(=O)[C@H](Cc2c[nH]cn2)NC(=O)[C@@H]2CSSC[C@H](NC1=O)C(=O)N[C@@H](Cc1c[nH]cn1)C(=O)N[C@H](Cc1ccccc1)C(=O)N[C@@H](CCCNC(=N)N)C(=O)N[C@@H](Cc1c[nH]c3ccccc13)C(=O)N[C@@H](CCCNC(=N)N)C(=O)N2 [Chem. 68, c[c[Cys-His-D-Phe-Arg-Trp-Arg-Cys]- His-D-Phe-Arg-Trp-Arg]] (cyclo(CH[dF]RWRCH[dF]RWR); disulfide 1-7)	1	–	–
